This is an account of results in patent US20240398813A1, “PHARMACEUTICAL COMPOSITION FOR PREVENTING OR TREATING OVERACTIVE BLADDER” (GWANGJU INSTITUTE OF SCIENCE AND TECHNOLOGY, priority 2021, published 2024).

The assay addresses T1, BKCa channels (rat KCNMA, rSlo α) (Rattus norvegicus, UniProt Q62976).
T1 construct: expressed in transfected cells; host or cells: Xenopus laevis oocytes injected with cRNA
Kind of assay: Macroscopic current recording, outside-out patch clamp, BKCa channels expressed in Xenopus oocytes. The assay is classed as cell-based. The text has this: The complete coding sequence (CDS) of each of rat KCNMA (rSlo α) (GenBank AF135265.1), KCNMB1 (rSlo 01) (GenBank FJ154955.1) and KCNMB4 (rSlo β4) (GenBank AY028605) was subcloned into pNBC2.0 or pNBC2.0. These vectors were designed to be expressed in Xenopus oocytes (Ha, T. S., Lim, H. H., Lee, G. E., Kim, Y. C., & Park, C. S. (2006). Electrophysiological characterization of benzofuroindole-induced potentiation of large-conductance Ca2+-activated K+ channels. Mol Pharmacol, 69(3), 1007-1014). The plasmid was linearized by NotI and complementary RNA (cRNA) was synthesized using the Ambion T7 mMESSAGE mMACHINE kit (Invitrogen, Carlsbad, CA, USA) according to the manufacturer's instructions. Xenopus laevis (KXRCR000001) was obtained from the Korea Xenopus Resource Center for Research (Chuncheon-si, Gangwon-do, Korea). Stage V-VI oocytes were surgically extracted from the ovarian lobes of X. laevis. A follicular cell layer was removed by culturing in Ca^2+-free oocyte Ringer's medium (86 mM NaCl, 1.5 mM KCl, 2 mM MgCl2 and 10 mM HEPES, pH 7.6) containing collagenase for 1.5 hours at room temperature. Oocytes without follicular layer were washed with ND-96 medium (96 mM NaCl, 2 mM KCl, 1.8 mM CaCl2), 1 mM MgCl2, 5 mM HEPES, […] gentamicin, pH 7.6). The prepared oocytes were stabilized overnight at 18° C. cRNA was injected into each oocyte (50 ng per oocyte) using a microdispenser (Drummond Scientific, Broomall, PA, USA). For co-expression of the β subunits, cRNA was mixed at a molar ratio of 1:12 (α:β) to induce sufficient co-assembly of the R subunits. After injection of cRNA, the oocytes were cultured in ND-96 medium for 1-3 days at 18° C. Before recording macroscopic currents, vitelline membranes of the oocytes were completely removed using fine forceps.
All macroscopic current recordings in the BKCa channels were performed using the gigaohm-seal patch-clamp method in an outside-out configuration (Ha et al., 2006). A patch pipette was made of borosilicate glass (WPI, Sarasota, FL, USA) and fire-polished by a resistance of 3-5 MQ. Ion currents were amplified using an Axopatch 200B amplifier (Molecular Devices). The currents were low-pass filtered at 1 kHz using a four-pole Bessel filter and digitized at a rate of 10 or 20 points/ms using a Digidata 1200A interface (Molecular Devices). The BKCa channels were activated by repeated voltage clamps at +100 mV or by voltage clamp pulses ranging from −80 to +200 mV with an increment of 10 mV. The resting potential was maintained at −100 mV. The recording solution contained 116 mM KOH, 4 mM KCl, 10 mM HEPES, and 5 mM EGTA (pH 7.2). The intracellular solution contained 3 μM Ca^2+ in the recording solution (pH 7.0). MaxChelator program was used to calculate the total amount of Ca^2+ to be added to the intracellular solution for obtaining free Ca^2+ at a concentration of 3 μM.
The commercial software Clampex 8.0 (Molecular Device) and Origin 9.1 (OriginLab Corp., Northampton, MA, USA) were used for data analysis and fitting of the macroscopic currents. A conductance-voltage (G-V) curve obtained from the external current was fitted by the Boltzmann equation [y=(Gmax−Gmin)/{1+exp[(V1/2−x)/k]}+Gmin]. Wherein k is RT/zF, and wherein R is a gas constant, T is a temperature, F is the Faraday's constant, and z is a gating charge. Gmax is the maximum conductivity and V1/2 is a voltage for half maximum conductivity. The concentration-dependent V1/2 shift was fitted by the Hill equation [y=AVi/2,max x^n/(EC50^n+x^n)]. Wherein ΔV1/2,max is a constant. EC50 is half the apparent maximum effective concentration and n is the Hill coefficient. By definition, the apparent dissociation constant KD was obtained by EC50^n. The association time constant (r association) was obtained by fitting the exponential equation [y=A exp(−x/τ)+C]. Wherein A and C are constants and τ is the time to reach (1−1/e) ( ? 63%) of the maximum current level. […]

The mark [1] stands for this setting: washout after 10 μM, double exponential fit.

T1 sequence (Q62976 whole entry): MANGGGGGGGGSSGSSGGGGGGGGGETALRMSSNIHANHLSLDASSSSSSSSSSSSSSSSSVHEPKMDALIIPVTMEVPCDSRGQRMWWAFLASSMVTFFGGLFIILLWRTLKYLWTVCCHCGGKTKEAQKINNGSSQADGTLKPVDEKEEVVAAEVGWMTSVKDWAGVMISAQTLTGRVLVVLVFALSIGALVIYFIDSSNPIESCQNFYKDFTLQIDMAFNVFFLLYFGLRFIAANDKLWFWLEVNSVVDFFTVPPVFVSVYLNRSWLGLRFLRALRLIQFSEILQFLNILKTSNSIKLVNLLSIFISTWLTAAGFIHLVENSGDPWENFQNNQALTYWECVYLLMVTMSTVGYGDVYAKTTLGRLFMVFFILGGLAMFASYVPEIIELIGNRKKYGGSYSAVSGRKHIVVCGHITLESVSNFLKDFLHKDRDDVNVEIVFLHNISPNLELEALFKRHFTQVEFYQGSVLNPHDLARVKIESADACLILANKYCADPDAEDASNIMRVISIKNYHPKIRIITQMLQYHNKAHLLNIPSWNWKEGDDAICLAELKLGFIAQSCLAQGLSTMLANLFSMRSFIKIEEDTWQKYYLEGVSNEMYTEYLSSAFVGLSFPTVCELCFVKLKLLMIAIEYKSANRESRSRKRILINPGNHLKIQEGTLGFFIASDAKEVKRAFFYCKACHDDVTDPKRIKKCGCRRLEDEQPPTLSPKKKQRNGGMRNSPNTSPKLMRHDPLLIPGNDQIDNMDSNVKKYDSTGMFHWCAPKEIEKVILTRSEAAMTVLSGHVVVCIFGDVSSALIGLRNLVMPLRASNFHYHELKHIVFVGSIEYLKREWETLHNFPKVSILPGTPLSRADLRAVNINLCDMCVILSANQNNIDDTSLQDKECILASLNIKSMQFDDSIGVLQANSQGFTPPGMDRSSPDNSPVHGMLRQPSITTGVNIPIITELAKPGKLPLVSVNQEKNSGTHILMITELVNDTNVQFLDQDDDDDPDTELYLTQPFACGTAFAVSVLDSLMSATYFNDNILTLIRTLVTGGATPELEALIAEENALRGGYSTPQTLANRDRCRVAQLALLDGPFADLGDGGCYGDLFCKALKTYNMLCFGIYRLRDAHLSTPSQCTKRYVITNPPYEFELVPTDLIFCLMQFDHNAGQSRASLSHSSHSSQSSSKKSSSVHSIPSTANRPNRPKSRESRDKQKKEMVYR

In the case of `Cc1cccc(NC(=O)c2sc(=S)n3c2[nH]c(=O)c2cc(Br)ccc23)c1` [TTQC-1, 7-bromo-5-oxo-1-thioxo-N-(m-tolyl)-4,5-dihydro-1H-thiazolo[3,4-a]quinazoline-3-carboxamide], the “effect on channel activation time constant (τ activation)” value (10 μM) is recorded as “did not show significant changes”. For the setting “10 μM, +100 mV pulses, 3 μM intracellular Ca2+”, the “association time constant (τ association)” value came to 11.7 ± 1.77 s. Further, the “increase of channel deactivation time constant (τ deactivation)” value (10 μM, at +200 mV) stood at 5.3 times. Besides, where the note is “30 μM”, the “half-activation voltage (V1/2)” value was found to be 37.9±7.50 mV and the “increase of maximum conductance (Gmax) compared to vehicle (G0max)” value was determined as 1.4±0.11 times. Moreover, under “0.1-30 μM, 3 μM intracellular Ca2+, read-out: apparent EC50 of V1/2 shift (Hill equation)”, the EC50 worked out at 2.8 µM. Further, the Hill coefficient n (fit of V1/2 shift) is reported as 2.0. Also, where the note is “washout after 10 μM”, the “Afast (amplitude of fast dissociation component)” value stood at 0.49±0.064 and the “Aslow (amplitude of slow dissociation component)” value is recorded as 0.53±0.054. Under setting [1], the “dissociation time constant, fast component” value was 7.8 ± 1.10 s and the “dissociation time constant, slow component” value came to 136.2 ± 11.24 s.
